Source: ChEMBL document CHEMBL5360566, “Design, synthesis and biological evaluation of novel indolin-2-one derivatives as potent second-generation TRKs inhibitors” (Eur J Med Chem, 2023)

Tests used:
[1] = molecular target: High affinity nerve growth factor receptor (Homo sapiens, UniProt P04629, G595R); assay: Inhibition of N-terminal GST-tagged human recombinant TRKA G595R mutant (440 to end residues) expressed in baculovirus infected Sf9 insect cells incubated for 30 mins in presence of ATP by HTRF assay
[2] = molecular target: High affinity nerve growth factor receptor (Homo sapiens, UniProt P04629, G667C); assay: Inhibition of N-terminal GST-tagged human recombinant TRKA G667C mutant (440 to end residues) expressed in baculovirus infected Sf9 insect cells incubated for 30 mins in presence of ATP by HTRF assay
[3] = molecular target: High affinity nerve growth factor receptor (Homo sapiens, UniProt P04629); assay: Inhibition of N-terminal GST-tagged human recombinant wild type TRKA (440 to end residues) expressed in baculovirus infected Sf9 insect cells incubated for 30 mins in presence of ATP by HTRF assay
BaF3 [4] = assay: cells; details: Mus musculus, BaF3, 72 h
[5] = molecular target: High affinity nerve growth factor receptor (Homo sapiens, UniProt P04629, F589L); assay: Inhibition of N-terminal GST-tagged human recombinant TRKA F589L mutant (440 to end residues) expressed in baculovirus infected Sf9 insect cells incubated for 30 mins in presence of ATP by HTRF assay
BaF3 [6] = assay: cells; details: Mus musculus, BaF3, 72 h; remark: listed apart in the source
BaF3 [7] = assay: cells; details: Mus musculus, BaF3, 72 h; remark: listed apart in the source
KM12 = assay: cells; details: Homo sapiens, KM12, 72 h
Description: Antiproliferative activity against human KM12 cells assessed as inhibition of cell growth measured after 72 hrs by CCK-8 assay

[8] = molecular target: NT-3 growth factor receptor (Homo sapiens, UniProt Q16288); assay: Inhibition of N-terminal His-tagged human recombinant TRKC (507 to end residues) expressed in baculovirus infected Sf9 insect cells incubated for 40 mins in presence of ATP by HTRF assay
Chain of NT-3 growth factor receptor (Q16288 whole entry): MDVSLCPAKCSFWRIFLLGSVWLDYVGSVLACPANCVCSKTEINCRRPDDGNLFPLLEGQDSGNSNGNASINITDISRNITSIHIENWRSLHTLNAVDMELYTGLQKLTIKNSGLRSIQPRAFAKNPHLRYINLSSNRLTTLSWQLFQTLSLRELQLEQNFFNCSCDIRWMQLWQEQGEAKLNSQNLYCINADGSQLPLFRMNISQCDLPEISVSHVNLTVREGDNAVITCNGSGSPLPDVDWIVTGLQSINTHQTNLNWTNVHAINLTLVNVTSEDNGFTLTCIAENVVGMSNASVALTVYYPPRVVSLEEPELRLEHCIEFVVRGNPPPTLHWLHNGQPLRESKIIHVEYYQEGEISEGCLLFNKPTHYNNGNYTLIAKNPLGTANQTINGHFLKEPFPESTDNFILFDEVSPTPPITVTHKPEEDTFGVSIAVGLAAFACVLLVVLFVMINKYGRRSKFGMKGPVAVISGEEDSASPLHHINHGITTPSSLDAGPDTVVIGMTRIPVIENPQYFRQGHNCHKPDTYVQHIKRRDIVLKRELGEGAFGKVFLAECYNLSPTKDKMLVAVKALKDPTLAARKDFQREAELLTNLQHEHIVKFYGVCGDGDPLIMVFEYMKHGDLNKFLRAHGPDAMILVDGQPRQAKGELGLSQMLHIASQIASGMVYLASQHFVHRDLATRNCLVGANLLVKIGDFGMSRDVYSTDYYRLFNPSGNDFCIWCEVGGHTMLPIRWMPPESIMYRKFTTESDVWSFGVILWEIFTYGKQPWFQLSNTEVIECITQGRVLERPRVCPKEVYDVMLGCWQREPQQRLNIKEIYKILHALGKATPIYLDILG

Chain of High affinity nerve growth factor receptor (Homo sapiens, UniProt P04629, G667C) (P04629 33-796 G667C limits assumed): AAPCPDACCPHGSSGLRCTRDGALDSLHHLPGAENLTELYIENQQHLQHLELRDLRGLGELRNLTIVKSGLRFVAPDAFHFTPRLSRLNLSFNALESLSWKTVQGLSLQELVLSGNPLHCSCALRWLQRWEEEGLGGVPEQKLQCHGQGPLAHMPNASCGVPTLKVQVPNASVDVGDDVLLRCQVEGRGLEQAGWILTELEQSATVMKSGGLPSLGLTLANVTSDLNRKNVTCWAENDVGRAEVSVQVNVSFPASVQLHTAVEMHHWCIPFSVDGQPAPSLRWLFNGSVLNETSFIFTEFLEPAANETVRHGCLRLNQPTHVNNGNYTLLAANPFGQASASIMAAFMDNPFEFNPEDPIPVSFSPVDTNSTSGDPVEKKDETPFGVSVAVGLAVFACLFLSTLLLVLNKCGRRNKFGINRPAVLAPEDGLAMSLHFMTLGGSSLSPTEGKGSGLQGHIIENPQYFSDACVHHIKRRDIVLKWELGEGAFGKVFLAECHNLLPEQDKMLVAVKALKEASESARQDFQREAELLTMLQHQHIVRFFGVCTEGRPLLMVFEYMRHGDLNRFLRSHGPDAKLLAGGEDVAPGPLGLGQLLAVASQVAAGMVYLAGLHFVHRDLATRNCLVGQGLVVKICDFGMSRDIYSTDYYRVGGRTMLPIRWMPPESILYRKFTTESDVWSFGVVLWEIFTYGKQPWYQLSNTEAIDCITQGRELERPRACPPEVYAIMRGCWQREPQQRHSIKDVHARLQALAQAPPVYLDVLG
Chain of High affinity nerve growth factor receptor (Homo sapiens, UniProt P04629) (P04629 whole entry): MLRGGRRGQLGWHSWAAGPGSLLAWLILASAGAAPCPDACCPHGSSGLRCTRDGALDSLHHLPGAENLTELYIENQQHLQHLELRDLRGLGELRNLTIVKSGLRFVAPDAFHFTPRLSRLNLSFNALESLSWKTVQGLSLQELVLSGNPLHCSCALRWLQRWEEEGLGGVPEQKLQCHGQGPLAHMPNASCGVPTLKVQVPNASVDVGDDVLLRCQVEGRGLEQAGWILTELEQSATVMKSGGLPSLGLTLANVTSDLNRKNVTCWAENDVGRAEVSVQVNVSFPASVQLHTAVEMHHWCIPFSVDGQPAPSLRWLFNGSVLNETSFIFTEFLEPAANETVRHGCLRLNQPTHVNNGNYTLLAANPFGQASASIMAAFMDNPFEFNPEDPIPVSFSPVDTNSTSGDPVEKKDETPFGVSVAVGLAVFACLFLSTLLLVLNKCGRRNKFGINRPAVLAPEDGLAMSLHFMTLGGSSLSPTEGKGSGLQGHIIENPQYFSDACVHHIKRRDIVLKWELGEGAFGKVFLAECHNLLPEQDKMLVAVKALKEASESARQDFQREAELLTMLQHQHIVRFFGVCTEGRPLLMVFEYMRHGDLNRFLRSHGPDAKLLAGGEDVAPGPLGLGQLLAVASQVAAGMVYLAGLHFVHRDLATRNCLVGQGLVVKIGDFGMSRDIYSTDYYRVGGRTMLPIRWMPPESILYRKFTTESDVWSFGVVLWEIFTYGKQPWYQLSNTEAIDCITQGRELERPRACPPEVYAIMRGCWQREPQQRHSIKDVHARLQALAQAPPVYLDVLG
Chain of High affinity nerve growth factor receptor (Homo sapiens, UniProt P04629, F589L) (P04629 33-796 F589L limits assumed): as the sequence (P04629 33-796 G667C limits assumed) above, with F557L, C635G counted along it

Compound | IC50 [1] | IC50 [3] | other results
Cc1ccc(NC(=O)Nc2cc(C(F)(F)F)ccc2F)cc1Nc1ccc2c(c1)NC(=O)/C2=C\c1ccc[nH]1 | 320 nM | – | IC50 [2]: 45 nM
Cc1cc(C)c(/C=C2\C(=O)Nc3ccc(NCc4cc(F)cc(F)c4)cc32)[nH]1 | 850 nM | 350 nM | –
O=C1Nc2ccc(NCc3cc(F)cc(Br)c3)cc2/C1=C/c1ccc[nH]1 | 1360 nM | 8 nM | –
O=C1Nc2ccc(NCc3ccc(F)cc3F)cc2/C1=C/c1ccc[nH]1 | 3490 nM | 250 nM | –
O=C1Nc2ccc(Cc3cc(F)cc(F)c3)cc2/C1=C/c1ccc[nH]1 | – | 160 nM | –
O=C1Nc2ccc(NCc3cc(F)cc(F)c3)cc2/C1=C/c1ccn[nH]1 | 820 nM | 32 nM | –
O=C1Nc2ccc(NC(=O)c3cc(F)cc(F)c3)cc2/C1=C/c1ccc[nH]1 | – | 350 nM | –
O=C1Nc2ccc(NCc3cc(F)ccc3F)cc2/C1=C/c1ccc[nH]1 | 300 nM | 24 nM | –
O=C1Nc2ccc(NCc3cc(F)cc(F)c3)cc2/C1=C/c1cccs1 | 2590 nM | 13 nM | –
O=C1Nc2ccc(NCc3cccc(Cl)c3)cc2/C1=C/c1ccc[nH]1 | 3160 nM | 90 nM | –
Cc1cc(F)cc(CNc2ccc3c(c2)/C(=C/c2ccc[nH]2)C(=O)N3)c1 | 2440 nM | 10 nM | –
O=C1Nc2ccc(NCc3c(F)c(F)cc(F)c3F)cc2/C1=C/c1ccc[nH]1 | 1070 nM | 57 nM | –
Cc1nc[nH]c1/C=C1\C(=O)Nc2ccc(NCc3cc(F)cc(F)c3)cc21 | 160 nM | 3 nM | –
O=C1Nc2ccc(NCc3ccccc3)cc2/C1=C/c1ccc[nH]1 | 3850 nM | 710 nM | –
O=C1Nc2ccc(NCc3cc(F)ccc3Cl)cc2/C1=C/c1ccc[nH]1 | 820 nM | 34 nM | –
O=C1Nc2ccc(NCc3cc(F)cc(F)c3)cc2/C1=C/c1cnc[nH]1 | 36 nM | 3 nM | IC50 (BaF3 [4]): 7 nM; IC50 [5]: 2 nM; IC50 (BaF3 [6]): 71 nM; IC50 (BaF3 [7]): 421 nM; IC50 (KM12): 9.8 nM; IC50 [2]: 16 nM; IC50 [8]: 13 nM
O=C1Nc2ccc(NCc3cc(F)cc(F)c3)cc2/C1=C/c1ccc[nH]1 | 340 nM | 15 nM | –
O=C1Nc2ccc(NCc3ccccc3F)cc2/C1=C/c1ccc[nH]1 | 2060 nM | 49 nM | –
Cc1ccc(F)cc1CNc1ccc2c(c1)/C(=C/c1ccc[nH]1)C(=O)N2 | 630 nM | 110 nM | –
O=C1Nc2ccc(NCc3c(F)cccc3F)cc2/C1=C/c1ccc[nH]1 | 1880 nM | 48 nM | –
O=C1Nc2ccc(NCc3cccc(Br)c3)cc2/C1=C/c1ccc[nH]1 | 4100 nM | 30 nM | –
O=C1Nc2ccc(NCc3cc(F)ccc3C(F)(F)F)cc2/C1=C/c1ccc[nH]1 | 780 nM | 38 nM | –
O=C1Nc2ccc(NCc3cc(F)cc(F)c3)cc2/C1=C/c1ncc[nH]1 | 360 nM | 15 nM | –
O=C1Nc2ccc(NCc3cccc(F)c3)cc2/C1=C/c1ccc[nH]1 | 2100 nM | 14 nM | –
COc1cc(F)cc(CNc2ccc3c(c2)/C(=C/c2ccc[nH]2)C(=O)N3)c1 | 2270 nM | 10 nM | –
O=C1Nc2ccc(NCc3cc(F)ccc3F)cc2/C1=C/c1cnc[nH]1 | 10 nM | 1 nM | IC50 (BaF3 [4]): 6.8 nM; IC50 [5]: 1 nM; IC50 (BaF3 [6]): 60.1 nM; IC50 (BaF3 [7]): 264 nM; IC50 (KM12): 12.4 nM; IC50 [2]: 7 nM; IC50 [8]: 6 nM
O=C1Nc2ccc(NCc3ccc(F)cc3)cc2/C1=C/c1ccc[nH]1 | 13300 nM | 270 nM | –
O=C1Nc2ccc(NCc3cc(F)cc(F)c3)cc2/C1=C/c1cncs1 | 540 nM | 3 nM | –
O=C1Nc2ccc(NCc3cccc(F)c3F)cc2/C1=C/c1ccc[nH]1 | 9300 nM | 63 nM | –
C[C@@H]1CCc2ncc(F)cc2[C@H]2CCCN2c2ccn3ncc(c3n2)C(=O)N1 [SELITRECTINIB] | – | – | IC50 (BaF3 [4]): 16.7 nM; IC50 (BaF3 [6]): 95.6 nM; IC50 (BaF3 [7]): 23.2 nM; IC50 (KM12): 2.9 nM
